Assay results: ChEMBL document CHEMBL1201862, “PubChem BioAssay data set” (2004)
Calls of active or inactive are those of the source.

Legend:
[1] = target: T1, RNA-binding protein pos-1 (Caenorhabditis elegans, UniProt G5EF15); test: inhibitors of POS-1/mex-3 RNA binding, dose response, biochemical, fluorescence polarization (AID 1964);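 also: purified POS-1 fused to maltose binding protein made in E. coli; potency of compounds blocking POS-1 binding to fluorescent RNA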
T1 sequence (G5EF15 whole entry): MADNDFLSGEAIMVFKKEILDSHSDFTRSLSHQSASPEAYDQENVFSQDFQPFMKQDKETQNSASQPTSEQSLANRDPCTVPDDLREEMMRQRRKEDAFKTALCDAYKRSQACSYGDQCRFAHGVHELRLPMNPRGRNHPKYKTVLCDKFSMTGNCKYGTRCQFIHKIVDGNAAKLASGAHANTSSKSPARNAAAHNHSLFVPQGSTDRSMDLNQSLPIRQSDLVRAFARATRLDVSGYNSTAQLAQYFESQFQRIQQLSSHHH

[2] = target: T2, Zinc finger protein mex-5 (Caenorhabditis elegans, UniProt Q9XUB2); test: MEX-5/TCR-2 RNA interaction inhibitors, dose response, biochemical, C. elegans, fluorescence polarization (AID 1960)
T2 sequence (Q9XUB2 whole entry): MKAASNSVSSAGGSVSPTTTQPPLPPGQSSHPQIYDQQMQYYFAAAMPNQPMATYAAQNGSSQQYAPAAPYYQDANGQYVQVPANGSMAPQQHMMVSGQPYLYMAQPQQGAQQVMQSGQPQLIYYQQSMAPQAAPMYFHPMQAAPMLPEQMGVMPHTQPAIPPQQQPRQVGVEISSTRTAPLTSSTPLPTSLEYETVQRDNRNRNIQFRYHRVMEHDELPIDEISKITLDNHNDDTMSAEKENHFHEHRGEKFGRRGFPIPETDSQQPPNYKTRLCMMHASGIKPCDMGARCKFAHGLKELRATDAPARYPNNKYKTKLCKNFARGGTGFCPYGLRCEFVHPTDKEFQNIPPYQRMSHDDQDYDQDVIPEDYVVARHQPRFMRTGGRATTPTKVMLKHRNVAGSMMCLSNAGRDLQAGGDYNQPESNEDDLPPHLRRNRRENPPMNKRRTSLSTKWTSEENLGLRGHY

Beta-lactamase [3] = target: Beta-lactamase (Pseudomonas aeruginosa, UniProt Q79MP6);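 also: biochemical dose-response test of metallo-beta-lactamase enzyme inhibition, read out by epi-absorbance; purified recombinant IMP-1 metallo-beta-lactamase with nitrocefin as substrate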
Beta-lactamase [4] = target: Beta-lactamase (Salmonella choleraesuis (strain SC-B67), UniProt Q5J463)
[5] = A549 cell cytotoxicity, dose response, cytotoxicity control, plate reader, cherry-pick, antagonist series (AID 743412); assay type: functional, cell-based
[6] = HepG2 cell cytotoxicity, dose response, cytotoxicity control, plate reader, cherry-pick, antagonist series (AID 743416); assay type: functional, cell-based
[7] = LGR2 antagonists, dose response, cell-based, HEK293, CRE-luciferase reporter, cherry pick, set 2 (AID 743343); assay type: functional;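 also: transfected cells were stimulated with diluted bursicon conditioned medium after compound addition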
[8] = MC4R antagonists, dose response, counter-screen for LGR2 antagonist project, cell-based, plate reader, cherry pick (AID 743444); assay type: functional;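 also: transfected HEK 293 cells stimulated with alpha-MSH peptide; potency of inhibitors of the alpha-MSH evoked signal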
[9] = HEK293 cell cytotoxicity, dose response, cytotoxicity control, plate reader, cherry-picked samples (AID 743446); assay type: functional, cell-based
[10] = inhibitors of HIV Env-driven cell fusion, dose response, cherry-pick (AID 652057); assay type: functional, cell-based
[11] = CEM21 lymphoblast cell cytotoxicity, dose response, cytotoxicity control for viral fusion inhibitor project, CellTiter-Glo luminescence, cherry-picked (AID 652042); assay type: functional, cell-based;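 also: potency for signal decrease meaning cytotoxicity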
[12] = inhibitors of clade B AD8 Env fusion, dose response, cell-based, cherry-pick (AID 652062); assay type: functional;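 also: luciferase signal from cell-cell fusion driven by HIV-1 clade B AD8 Env; potency is for inhibitors of fusion seen as a drop in luminescence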
[13] = target: Voltage-dependent T-type calcium channel subunit alpha-1H (Homo sapiens, UniProt O95180); assay type: functional;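 also: channel activity triggered by adding a high calcium stimulation buffer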
[14] = ZM109 Env clade C HIV-1 fusion inhibitors, dose response, HeLa effector, CEM target cells, luciferase, cherry-pick (AID 652058); assay type: functional, cell-based
[15] = off-target signal loss in HeLa-CEM21 co-culture – HeLa F-luc CTL cells, cherry-picked, counter-screen for HIV-1 Env fusion inhibitor project, dose response (AID 652040); assay type: functional, cell-based;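 also: potency for signal decrease marking cytotoxic or nonspecific inhibition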
[16] = human group III sPLA2 inhibitors, dose response, biochemical, QFRET, IC50 (AID 743457);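 also: green fluorescence rise as the enzyme cleaves BODIPY PC-A2 in liposomes; potency for inhibition of the enzyme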
cells [17] = assay type: functional, cell-based
[18] = target: T3, Trace amine-associated receptor 1 (Homo sapiens, UniProt Q96RJ0); test: Fluorescence-based cell-based high throughput dose response assay to identify agonists of the human trace amine associated receptor 1 (TAAR1).; assay type: functional
T3 sequence (Q96RJ0 whole entry): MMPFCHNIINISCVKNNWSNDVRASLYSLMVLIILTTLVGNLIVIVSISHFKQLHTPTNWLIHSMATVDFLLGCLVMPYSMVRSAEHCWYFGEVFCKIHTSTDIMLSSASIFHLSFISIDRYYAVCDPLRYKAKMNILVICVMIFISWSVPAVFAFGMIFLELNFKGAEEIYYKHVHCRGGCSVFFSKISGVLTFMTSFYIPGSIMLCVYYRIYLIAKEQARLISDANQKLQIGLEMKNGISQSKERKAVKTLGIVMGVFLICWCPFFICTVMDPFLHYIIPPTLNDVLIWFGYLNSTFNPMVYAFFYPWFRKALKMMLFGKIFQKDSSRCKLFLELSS

[19] = target: T3, Trace amine-associated receptor 1; test: Counterscreen for agonists of the human trace amine associated receptor 1 (hTAAR1): Fluorescence-based cell-based high throughput dose response assay to identify hTAAR1 agonist that also desensitize TAAR1 receptor response.; assay type: functional
cells [20] = assay type: functional, cell-based; remark: listed apart in the source
Major prion protein = Major prion protein (Homo sapiens, UniProt P04156); assay type: functional, cell-based
cells [21] = test: cells
[22] = target: Glucose-6-phosphate 1-dehydrogenase (Homo sapiens, UniProt P11413); test: human G6PD enzyme inhibitors, dose response, selectivity assay for P. falciparum G6PD inhibitor project, biochemical, fluorescence (AID 504792); assay type: functional
Vero = test: cells; assay type: functional; details: Chlorocebus sabaeus
[23] = HeLa cell cytotoxicity, dose response, cytotoxicity control for MgcRacGAP inhibitor project (AID 624300); assay type: functional
[24] = target: T4, Rac GTPase-activating protein 1 (Homo sapiens, UniProt Q9H0H5); test: MgcRacGAP GTPase-activating activity inhibitors, confirmation, biochemical, ADP Hunter fluorescence, primary and confirmatory (AID 624330); assay type: functional
T4 sequence (Q9H0H5 whole entry): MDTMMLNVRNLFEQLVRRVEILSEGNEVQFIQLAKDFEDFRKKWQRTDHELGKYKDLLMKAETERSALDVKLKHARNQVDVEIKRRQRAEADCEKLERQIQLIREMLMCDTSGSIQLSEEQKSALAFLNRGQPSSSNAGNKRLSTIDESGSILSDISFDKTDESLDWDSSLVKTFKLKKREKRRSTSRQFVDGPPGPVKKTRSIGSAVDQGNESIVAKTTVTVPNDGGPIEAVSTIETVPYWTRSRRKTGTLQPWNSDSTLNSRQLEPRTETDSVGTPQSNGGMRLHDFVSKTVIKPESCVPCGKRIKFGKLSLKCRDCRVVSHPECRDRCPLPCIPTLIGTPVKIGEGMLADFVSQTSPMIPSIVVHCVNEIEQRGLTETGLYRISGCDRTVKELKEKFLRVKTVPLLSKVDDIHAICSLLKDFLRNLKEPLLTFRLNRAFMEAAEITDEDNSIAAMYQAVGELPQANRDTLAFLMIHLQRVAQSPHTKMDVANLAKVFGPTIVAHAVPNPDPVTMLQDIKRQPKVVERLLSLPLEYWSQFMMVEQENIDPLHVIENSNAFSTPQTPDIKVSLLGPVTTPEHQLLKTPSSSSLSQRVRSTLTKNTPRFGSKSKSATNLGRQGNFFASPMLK

[25] = target: T5, Small ubiquitin-related modifier 1 (Homo sapiens, UniProt P63165); test: inhibitors of SUMO1 peptide binding, dose response, biochemical, fluorescence polarization, uHTS hits (AID 624382); assay type: functional; details: read-out: IC50_Mean
[26] = target: T5, Small ubiquitin-related modifier 1; test: inhibitors of SUMO1 partner interactions, dose response, biochemical, FRET (AID 624383); assay type: functional; details: read-out: IC50_Mean
[27] = target: T6, Probable nicotinate-nucleotide adenylyltransferase (Staphylococcus aureus (strain N315), UniProt P65502); assay type: functional, Staphylococcus aureus subsp. aureus N315;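 as to IC50 Mean: confirmatory dose-response retesting of NadD inhibitor hits first found in an ultra-high-throughput screen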
[28] = target: T6, Probable nicotinate-nucleotide adenylyltransferase; assay type: functional, Staphylococcus aureus subsp. aureus N315; details: read-out: IC50_Mean
[29] = target: T7, Low molecular weight phosphotyrosine protein phosphatase (Homo sapiens, UniProt P24666); assay type: functional; details: read-out: IC50_Mean;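 also: Dose-response confirmation assay measuring inhibition of LMPTP enzyme activity by fluorescence intensity read-out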
T7 sequence (P24666 whole entry): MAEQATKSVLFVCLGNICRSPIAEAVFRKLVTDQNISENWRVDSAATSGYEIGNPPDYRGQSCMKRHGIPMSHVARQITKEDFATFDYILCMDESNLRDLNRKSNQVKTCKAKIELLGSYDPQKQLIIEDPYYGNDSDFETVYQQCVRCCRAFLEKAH

Albumin = Albumin (Bos taurus, UniProt P02769); test: Counterscreen for inhibitors of T-cell receptor (TCR)-CD3 interaction: Fluorescence-based biochemical high throughput dose response assay to identify inhibitors of T-cell receptor (TCR)-CD3 interaction using a TAMRA-labeled BSA probe.; assay type: functional
[30] = Luminescence Cell-Based Dose Retest to Confirm Inhibitors of Cancer Stem Cells. [Related pubchem assays (depositor defined):AID2717, AID2721]; assay type: functional; details: Homo sapiens

CCCCCCn1c(=O)[nH]c2nc3cc(N)ccc3nc2c1=O
EC50 [1]: > 300 µM (inconclusive)
EC50 [2]: > 300 µM (inconclusive)
IC50 (Beta-lactamase [3]): > 59.6 µM (inactive)
IC50 (Beta-lactamase [4]): 9.7 µM (active)

O=C(Nc1ccc(N2CCN(C(=O)c3ccccc3)CC2)c(Cl)c1)c1ccc(Br)o1
AC50 [5]: 34.9 µM (active)
AC50 [6]: 35 µM (active)
AC50 [7]: 16.6 µM (active)
AC50 [8]: 14.9 µM (active)
AC50 [9]: 21.5 µM (active)

N#C[C@H]1[C@@H](c2ccc(-c3ccccc3)cc2)[C@@H](CO)N1S(=O)(=O)Cc1ccccc1
AC50 [10]: 1.93 µM (active)
AC50 [11]: 41.5 µM (active)
AC50 [12]: 4.94 µM (active)

Clc1ccc(C(c2nnnn2CCc2ccccc2)N2CCSCC2)cc1 (configuration not stated)
EC50 [13]: 8.87 µM (active)
AC50 [10]: 2 µM (active)
AC50 [11]: 62.2 µM (active)
AC50 [14]: 7.63 µM (active)
AC50 [15]: 4.45 µM (active)
AC50 [12]: 1.14 µM (active)

COc1ccc(Cl)cc1C(=O)NN=C(S)NC1CCCC1
IC50 [16]: > 122 µM (inactive)

CCOc1ccc([N+](=O)[O-])cc1CNCCc1ccccc1
IC50 (cells [17]): > 29.9 µM (inactive)
EC50 [18]: 0.337 µM (active)
IC50 [19]: 4.18 µM (active)
EC50 (cells [20]): > 29.9 µM (inactive)

O=C(O)c1ccccc1SCc1csc(-c2ccccc2)n1
IC50 (Major prion protein): 6.49 µM (active)
IC50 (cells [21]): > 138 µM (inactive)

CN(C)c1nc(=NCc2cccs2)ss1
IC50 [22]: > 80 µM (inactive)
CC50 (Vero): 19 µM (active)
CC50 [23]: 100 µM (active)
IC50 [24]: 134 µM (active)

COC(=O)C1=C(COc2ccccc2)NC(=O)NC1c1ccc(Br)cc1 (configuration not stated)
IC50 [25]: > 66.6 µM (inactive)
IC50 [26]: 15.2 µM (active)

Cc1ccc2[nH]c(=O)c(CN(CCc3ccccc3)C(c3nnnn3Cc3ccco3)C(C)C)cc2c1 (configuration not stated)
IC50 [27]: 12.1 µM (active)
IC50 [28]: 20 µM (active)

Clc1ccc(CCNCc2ccncc2)c(Cl)c1
IC50 (cells [17]): > 29.9 µM (inactive)
EC50 [18]: 2.01 µM (active)
IC50 [19]: 6.77 µM (active)
EC50 (cells [20]): > 29.9 µM (inactive)

CCn1c(=S)sc2c(=O)n(CC(=O)Nc3ccccc3C(F)(F)F)c(C)nc21
IC50 (Beta-lactamase [3]): 22.7 µM (inactive)
IC50 (Beta-lactamase [4]): > 59.6 µM (inactive)
IC50 [29]: 16.2 µM (active)

Cc1ccc(S(=O)(=O)Nc2ccc3c(c2)C(=O)N([C@H](C)CO)C[C@@H](C)[C@@H](CN(C)Cc2ccc(-c4ccccc4)cc2)O3)cc1
AC50 [10]: 18 µM (active)
AC50 [11]: 21.8 µM (active)
AC50 [14]: 16.6 µM (active)
AC50 [12]: 17.4 µM (active)

Cc1[nH]c2ccc(C(=O)OCC(=O)Nc3cccc(S(N)(=O)=O)c3)cc2c1C
IC50 [25]: > 66.6 µM (inactive)
IC50 [26]: 0.624 µM (active)

O=C(NNC(=O)c1c(O)c2ccccc2[nH]c1=O)c1ccccc1
IC50 (Albumin): > 94.1 µM (inactive)

COc1ccccc1CCn1cnc(-c2ccccc2OC)c1C(C)C
IC50 (cells [17]): 11.8 µM (inactive)
EC50 [18]: 5.14 µM (active)
IC50 [19]: 3.82 µM (active)
EC50 (cells [20]): > 29.9 µM (inactive)
AC50 [6]: 29.8 µM (active)
AC50 [8]: 29.4 µM (active)
AC50 [9]: > 52 µM (inactive)

O=C(CNc1cccc(Cl)c1)NNC(=S)NCc1ccccc1
IC50 [16]: > 122 µM (inactive)

CCOc1ccc(C(=O)C2=C(O)C(=O)N(c3ccccn3)C2c2ccccc2F)c(C)c1 (configuration not stated)
IC50 (Major prion protein): 5.58 µM (active)
IC50 (cells [21]): > 138 µM (inactive)

CC(C)(C)c1cc(Cl)ccc1OCCOCCN1CCCC1
AC50 [30]: 6.93 µM (active)
CC50 [23]: 67.4 µM (active)
IC50 [24]: 104 µM (active)

C#Cc1ccc([C@H]2C=C(C(=O)NCc3nc4ccccc4[nH]3)O[C@@H](OCc3ccc(CO)cc3)C2)cc1
IC50 [27]: 10.5 µM (active)
IC50 [28]: 20.7 µM (active)
